According to patent US9334524B2, “Methods for improving and managing nucleoside reverse-transcriptase inhibition based treatment” (priority 2011, dated 2016):
Read-outs that look alike come from different tables or passages of the source.

What was measured:
[1] = test system: HIV-1 reverse transcriptase; type: cell-based; details: for inhibition of cell growth, then reverse transcription (OD @ 600 nm): Strain A (not carrying dCK and OAT1), 100 μM, 72 hours, FIG. 1; for % Inhibition of HIV Reverse Transcriptase activity in yeast cells: Strain A (no dCK, no transporter), 200 μM, 72 hours incubation
[2] = test system: HIV-1 reverse transcriptase; type: cell-based; details: for inhibition of cell growth, then reverse transcription (OD @ 600 nm): Strain A# (dCK in genome, OAT1 plasmid), 100 μM, 72 hours, FIG. 1; for inhibition of HIV RT enabled by expression of OAT1: transformed yeast cell expressing OAT1
[3] = test system: HIV-1 reverse transcriptase; details: Strain B## (dCK+, OAT1+ in genome), 100 μM, 72 hours, FIG. 2
From the text: S. cerevisiae strain B (Mat a, URA+, HIS−, LEU+) was transformed, using the standard Lithium Acetate protocol, with a previously linearized by StuI restriction enzyme p426GPDhdCK plasmid that contains the nucleic acid sequences coding for dCK and ura3, and where linearization occurred within the ura3 open reading frame. The new strain (Strain B#) where integration of dCK occurred at the ura3 locus has the following phenotype (Mat a, URA−, HIS−, LEU+, dCK+).
Strain B# was genetically modified by standard methods through transformation with a PCR amplified DNA fragment. This nucleic acid fragment contains the nucleic acid sequence coding for OAT1 transporter flanked by 5′ and 3′ non-coding regions of the leu2 locus. The new modified strain where dCK and OAT1 are integrated in the yeast genome, Strain B## (Mat a, URA−, HIS−, LEU−, dCK+, OAT1+), was transformed with the plasmid pHART21 described in U.S. Pat. No. 5,714,313. HIV-1 RT activity in Strain B## was determined as described in U.S. Pat. No. 5,714,313 after 72 hours incubation in the presence of 100 μM of either AZT, ddC, ddI or d4T.

[4] = test system: HIV-1 reverse transcriptase; details: Strain A§§ (NT5C+, CNT2+), 200 μM, 72 hours
Method: HIV RT activity was determined in both strains as described in U.S. Pat. No. 5,714,313 as follows. Both HIV1 RT expressing strains were grown in SD-ura+glucose to saturation. 1 DO of saturated culture (about 10^7 cells) was seeded in 1 ml SGal-ura and grew for 6 hrs. Glucose was then added to stop RT activation. After 12 hours, induced cells were seeded at 0.2 DO/ml in SD-His media and incubated for 72 hours.

[5] = test system: HIV-1 reverse transcriptase; details: Strain A#§ (dCK+, CNT2+), 200 μM, 72 hours
Method: HIV RT activity was determined in both strains as described in U.S. Pat. No. 5,714,313 as follows. Both HIV1 RT expressing strains were grown in SD-ura+glucose to saturation. 1 DO of saturated culture (about 10^7 cells) was seeded in 1 ml SGal-ura and grew for 6 hrs. Glucose was then added to stop RT activation. After 12 hours, induced cells were seeded at 0.2 DO/ml in SD-His media and incubated for 72 hours. Incubations were performed at 30° C. with shaking Inhibition of HIV-1 RT activity was determined by measuring the inhibition of growth in the presence 200 μM concentration of ABC (Abacavir) or TFV (Tenofovir) inhibitors, as shown in Table II.

[6] = test system: HIV-1 reverse transcriptase; type: cell-based; details: for % Inhibition of HIV Reverse Transcriptase activity in yeast cells: Strain A# (dCK+, CNT3+), 200 μM, 72 hours incubation; for inhibition of HIV RT enabled by expression of CNT3: transformed yeast cell expressing CNT3

## Nc1ccn([C@H]2CC[C@@H](CO)O2)c(=O)n1 [ddC, Zalcitabine]
[1]
  inhibition of cell growth, then reverse transcription (OD @ 600 nm): can not inhibit cell growth
[2]
  inhibition of cell growth, then reverse transcription (OD @ 600 nm): inhibits cell growth
  inhibition of HIV RT enabled by expression of OAT1: good inhibition
[3]
  inhibition of cell growth (% inhibition), then reverse transcription, absorbance at 600 nm: inhibits cell growth

## Nc1nc(NC2CC2)c2ncn([C@H]3C=C[C@@H](CO)C3)c2n1 [ABC, Abacavir]
[4]
  % Inhibition of HIV-1 Reverse transcriptase in modified yeast cells: 0%
[5]
  % Inhibition of HIV-1 Reverse transcriptase in modified yeast cells: 87%

## O=c1[nH]cnc2c1ncn2[C@H]1CC[C@@H](CO)O1 [ddI, Didanosine]
[1]
  inhibition of cell growth, then reverse transcription (OD @ 600 nm): can not inhibit cell growth
[2]
  inhibition of cell growth, then reverse transcription (OD @ 600 nm): inhibits cell growth
  inhibition of HIV RT enabled by expression of OAT1: good inhibition
[3]
  inhibition of cell growth (% inhibition), then reverse transcription, absorbance at 600 nm: inhibits cell growth

## CC(C)OC(=O)OCOP(=O)(CO[C@H](C)Cn1cnc2c(N)ncnc21)OCOC(=O)OC(C)C [TFV, Tenofovir]
[4]
  % Inhibition of HIV-1 Reverse transcriptase in modified yeast cells: 0%
[5]
  % Inhibition of HIV-1 Reverse transcriptase in modified yeast cells: 96%

## Cc1cn([C@H]2C[C@H](N=[N+]=[N-])[C@@H](CO)O2)c(=O)[nH]c1=O [AZT, Zidovudine]
[1]
  % Inhibition of HIV Reverse Transcriptase activity in yeast cells: 0%
  inhibition of cell growth, then reverse transcription (OD @ 600 nm): can not inhibit cell growth
[6]
  % Inhibition of HIV Reverse Transcriptase activity in yeast cells: 31%
  inhibition of HIV RT enabled by expression of CNT3: good inhibition
[2]
  inhibition of cell growth, then reverse transcription (OD @ 600 nm): inhibits cell growth
  inhibition of HIV RT enabled by expression of OAT1: good inhibition
[3]
  inhibition of cell growth (% inhibition), then reverse transcription, absorbance at 600 nm: inhibits cell growth

## Cc1cn([C@H]2C=C[C@@H](CO)O2)c(=O)[nH]c1=O [d4T, Stavudine]
[1]
  % Inhibition of HIV Reverse Transcriptase activity in yeast cells: 0%
  inhibition of cell growth, then reverse transcription (OD @ 600 nm): can not inhibit cell growth
[6]
  % Inhibition of HIV Reverse Transcriptase activity in yeast cells: 56%
  inhibition of HIV RT enabled by expression of CNT3: good inhibition
[2]
  inhibition of cell growth, then reverse transcription (OD @ 600 nm): inhibits cell growth
  inhibition of HIV RT enabled by expression of OAT1: good inhibition
[3]
  inhibition of cell growth (% inhibition), then reverse transcription, absorbance at 600 nm: inhibits cell growth
